Consider 1 compound from PMC4349960, “[^18F]FE@SUPPY: a suitable PET tracer for the adenosine A3 receptor? An in vivo study in rodents” (European Journal of Nuclear Medicine and Molecular Imaging, 2015).

This assay addresses T1, CHO cells expressing the human A3R (CHO-A3) (Homo sapiens, UniProt P0DMS8).
T1 construct: Karl-Norbert Klotz (University of Würzburg); host or cells: CHO cells stably transfected (CHO-A3), grown as subcutaneous masses in NMRI-nu/nu mice
T1 sequence (P0DMS8 1-318): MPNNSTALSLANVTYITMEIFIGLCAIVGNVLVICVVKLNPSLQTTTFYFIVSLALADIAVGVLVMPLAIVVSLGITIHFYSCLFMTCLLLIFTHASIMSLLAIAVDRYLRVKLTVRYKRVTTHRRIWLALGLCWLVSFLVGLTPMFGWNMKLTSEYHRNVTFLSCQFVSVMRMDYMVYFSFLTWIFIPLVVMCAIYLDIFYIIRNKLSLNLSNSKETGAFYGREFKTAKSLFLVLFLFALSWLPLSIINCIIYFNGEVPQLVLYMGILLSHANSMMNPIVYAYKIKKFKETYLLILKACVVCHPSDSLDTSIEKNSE
The experiment in a line: Xenograft mouse model PET (CHO vs CHO-A3 solid tissue masses). The class given is in vivo, mice. Here is the method:
Adult male Sprague-Dawley rats (Him:OFA; Animal Research Institute, Himberg, Austria) weighing 307 ± 35 g were kept under controlled environmental conditions (22 ± 1 °C, 40 – 70 % humidity, 12-h light/dark cycle) with free access to standard laboratory animal diet and tap water. Before being used in the experiments, the animals were allowed to adapt to the new conditions for at least a week. Prior to each experiment, the animals were placed in a chamber containing 2.5 % isoflurane in oxygen. When unconscious, the animals were taken from the chamber and kept under anaesthesia with 1.8 % isoflurane administered via a mask during the whole experiment. Pathogen-free, female NMRI-nu/nu mice (Taconic, Denmark) weighing 28.1 ± 0.8 g were housed under sterile conditions. Mice were injected subcutaneously into both upper flanks with 100 μL of a cell suspension in phosphate-buffered saline containing 10^6 CHO cells (right side) or 10^6 CHO-A3 cells (left side). During the imaging periods of 60 or 90 min (rats or xenografted mice, respectively) the isoflurane level was adjusted depending on the depth of anaesthesia. A humidifier was used to moisten the gas mixture before supplying it to the animal.
Around 17 days after cell inoculation, animals in the xenograft group were positioned in the imaging chamber and a dynamic 90-min PET scan was initiated at the start of [^18F]FE@SUPPY injection (2.21 ± 0.75 MBq dissolved in 100 μl physiological saline, pH 7.4; three animals) via a tail vein under isoflurane anaesthesia (2 %). Additionally, in this group, [^18F]FDG PET was performed 1 day prior to the [^18F]FE@SUPPY experiments. […] In brief, mice were deprived of food for 6 – 8 h before [^18F]FDG injection via a tail vein. Mice had access to drinking water at all times. Body warming was achieved by placing the entire cage on a heating pad kept at 38 °C. Warming was started around 30 min before tracer injection and was continued throughout the uptake and imaging period. [^18F]FDG (6.03 ± 1.31 MBq dissolved in 100 μL physiological saline, pH 7.4; three animals) was injected via a tail vein under isoflurane anaesthesia (2 %). Mice were kept under isoflurane anaesthesia throughout the whole uptake and imaging period. A 10-min static image was acquired at 1 h after [^18F]FDG injection. […]
For all PET scans (rats and xenografted mice), list mode data were acquired with an energy window of 350 – 750 keV (rats) or 250 – 750 keV (mice) and a 6-ns timing window. Before each PET scan, a transmission scan using a ^57Co point source was recorded over 10 min. […] A calibration factor for converting units of microPET images into absolute radioactivity concentration units was first generated by imaging a phantom filled with a known concentration of [^18F]FDG. […]

Consider `CCSC(=O)c1c(CC)nc(-c2ccccc2)c(C(=O)OCC[18F])c1CC` [[^18F]FE@SUPPY, 5-(2-[^18F]fluoroethyl)-2,4-diethyl-3-(ethylsulfanylcarbonyl)-6-phenylpyridine-5-carboxylate], for which the “Xenograft model of human A3R, finding” value (compared to [^18F]FDG) was “Specific uptake in CHO-A3 solid mass (p ≤ 0.03) compared to [^18F]FDG”. The “increased uptake (AUC) in CHO-A3 versus CHO tissue masses” value (xenografted NMRI-nu/nu mice, 90-min PET) is reported as “around 1.42 fold”.
